# Test results taken from the supplement of paper PMC11208160.
# Assay: recombinant UMI read abundance after kanamycin selection (control-corrected) (log10(CPM+1)); higher = more efficient recombination; extreme values may be limits of the assay; sequences stand for … in AGTGCAGAGAAAATCGGCCAGTTTTCTCTGCCTGCAGTCCGCATGCCGTGGGACCCCTTGGGTTCTAACCTGTTGCCTAGATTTATGCAGCGGACTGCCTTTCTCCCAAAGTGATAAACCGG…AGGTTGGTTTCACT; site = the 11-nt donor
# Procedure, shortened: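 Two replicates each of selected and unselected plating were used in this pooled Escherichia coli screen of donor and donor-binding-loop pairs for the IS621 bridge recombinase. Selection was with IPTG (0.07 mM) and kanamycin. Counts of recombinant UMIs, amplified across the donor–target junction, were converted to CPM, averaged, scaled by control-derived factors and reported as log10(CPM+1).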
# 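Further: IS621 bridge recombinase in Escherichia coli cells against a fixed T5 target plasmid.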
row,Sequence,recombinant UMI read abundance (log10)
1,GATTTGGCATGGACCGGTTTTCCCGGTAATCCGTATTTGTG (site CATTTGGCTCA),0.309
2,GATTTGGCATGGACCGGTTTTCCCGGTAATCCGTATTTGTG (site GATTTGGCTCA),0.152
3,GATTTGGCATGGACCGGTTTTCCCGGTAATCCGTATTTGTG (site TATTTGGCTCA),0.0288
4,GCAAAAGCATGGACCGGTTTTCCCGGTAATCCGTATTTGCC (site GCAAAAGCTGG),0.282
5,GCAACCTCATGGACCGGTTTTCCCGGTAATCCGTATTTGCT (site GCAACCTCTAG),1.91
6,GCAACTGCATGGACCGGTTTTCCCGGTAATCCGTATTTGGC (site GCAACTGCTGC),1.95
7,GCAAGAACATGGACCGGTTTTCCCGGTAATCCGTATTTGAC (site GCAAGAACTGT),2.57
8,GCAAGCGCATGGACCGGTTTTCCCGGTAATCCGTATTTGAT (site GCAAGCGCTAT),2.29
9,GCACCATCATGGACCGGTTTTCCCGGTAATCCGTATTTGTA (site GCACCATCTTA),2.47
10,GCACGACCATGGACCGGTTTTCCCGGTAATCCGTATTTGGG (site GCACGACCTCC),0.0133
11,GCACGCGCATGGACCGGTTTTCCCGGTAATCCGTATTTGGT (site GCACGCGCTAC),1.22
12,GCAGATTCATGGACCGGTTTTCCCGGTAATCCGTATTTGGG (site GCAGATTCTCC),0.609
13,GCAGGTACATGGACCGGTTTTCCCGGTAATCCGTATTTGAC (site GAAGGTACTGT),0.00935
14,GCAGGTACATGGACCGGTTTTCCCGGTAATCCGTATTTGAC (site GCAGGTACTGT),1.91
15,GCAGGTACATGGACCGGTTTTCCCGGTAATCCGTATTTGAC (site GGAGGTACTGT),0
16,GCAGGTACATGGACCGGTTTTCCCGGTAATCCGTATTTGAC (site GTAGGTACTGT),2.1
17,GCAGTAACATGGACCGGTTTTCCCGGTAATCCGTATTTGCA (site ACAGTATCTTG),0.498
18,GCAGTAACATGGACCGGTTTTCCCGGTAATCCGTATTTGCA (site GCAGTAACTTG),2.83
19,GCAGTCCCATGGACCGGTTTTCCCGGTAATCCGTATTTGCC (site GCAGTCCCTGG),0
20,GCAGTCGCATGGACCGGTTTTCCCGGTAATCCGTATTTGCG (site GAAGTCGCTCG),0.00976
21,GCAGTCGCATGGACCGGTTTTCCCGGTAATCCGTATTTGCG (site GCAGTCGCTCG),0.764
22,GCAGTCGCATGGACCGGTTTTCCCGGTAATCCGTATTTGCG (site GGAGTCGCTCG),0.00641
23,GCAGTCGCATGGACCGGTTTTCCCGGTAATCCGTATTTGCG (site GTAGTCGCTCG),0.0117
24,GCAGTCTCATGGACCGGTTTTCCCGGTAATCCGTATTTGCA (site ACAGTATCTTG),2.38
25,GCAGTCTCATGGACCGGTTTTCCCGGTAATCCGTATTTGCA (site GCAGTCTCTTG),2.87

row,Sequence,recombinant UMI read abundance (log10)
1,GCATATCCATGGACCGGTTTTCCCGGTAATCCGTATTTGAC (site GCATATCCTGT),1.39
2,GCATCGGCATGGACCGGTTTTCCCGGTAATCCGTATTTGCC (site GCATCGGCTGG),0.599
3,GCCAACTCATGGACCGGTTTTCCCGGTAATCCGTATTTGCG (site GCCAACTCTCG),1.98
4,GCCAATTCATGGACCGGTTTTCCCGGTAATCCGTATTTGGG (site GCCAATTCTCC),0.183
5,GCCACAGCATGGACCGGTTTTCCCGGTAATCCGTATTTGCT (site GCCACAGCTAG),1.2
6,GCCACGCCATGGACCGGTTTTCCCGGTAATCCGTATTTGTA (site ACCACGCCTTA),0.145
7,GCCACGCCATGGACCGGTTTTCCCGGTAATCCGTATTTGTA (site CCCACGCCTTA),0.0175
8,GCCACGCCATGGACCGGTTTTCCCGGTAATCCGTATTTGTA (site GACACGCCTTA),0.0176
9,GCCACGCCATGGACCGGTTTTCCCGGTAATCCGTATTTGTA (site GCAACGCCTTA),0
10,GCCACGCCATGGACCGGTTTTCCCGGTAATCCGTATTTGTA (site GCCAAGCCTTA),0.00579
11,GCCACGCCATGGACCGGTTTTCCCGGTAATCCGTATTTGTA (site GCCACACCTTA),0.00375
12,GCCACGCCATGGACCGGTTTTCCCGGTAATCCGTATTTGTA (site GCCACCCCTTA),0.0213
13,GCCACGCCATGGACCGGTTTTCCCGGTAATCCGTATTTGTA (site GCCACGACTTA),0.00736
14,GCCACGCCATGGACCGGTTTTCCCGGTAATCCGTATTTGTA (site GCCACGCCTAA),0.0376
15,GCCACGCCATGGACCGGTTTTCCCGGTAATCCGTATTTGTA (site GCCACGCCTCA),0.00817
16,GCCACGCCATGGACCGGTTTTCCCGGTAATCCGTATTTGTA (site GCCACGCCTGA),0
17,GCCACGCCATGGACCGGTTTTCCCGGTAATCCGTATTTGTA (site GCCACGCCTTA),0.289
18,GCCACGCCATGGACCGGTTTTCCCGGTAATCCGTATTTGTA (site GCCACGCCTTC),0.00289
19,GCCACGCCATGGACCGGTTTTCCCGGTAATCCGTATTTGTA (site GCCACGCCTTG),0.0133
20,GCCACGCCATGGACCGGTTTTCCCGGTAATCCGTATTTGTA (site GCCACGCCTTT),0.0209
21,GCCACGCCATGGACCGGTTTTCCCGGTAATCCGTATTTGTA (site GCCACGGCTTA),0.0146
22,GCCACGCCATGGACCGGTTTTCCCGGTAATCCGTATTTGTA (site GCCACGTCTTA),1.45
23,GCCACGCCATGGACCGGTTTTCCCGGTAATCCGTATTTGTA (site GCCACTCCTTA),0
24,GCCACGCCATGGACCGGTTTTCCCGGTAATCCGTATTTGTA (site GCCAGGCCTTA),0.013
25,GCCACGCCATGGACCGGTTTTCCCGGTAATCCGTATTTGTA (site GCCATGCCTTA),0.465

row,Sequence,recombinant UMI read abundance (log10)
1,GCCACGCCATGGACCGGTTTTCCCGGTAATCCGTATTTGTA (site GCCCCGCCTTA),0.00659
2,GCCACGCCATGGACCGGTTTTCCCGGTAATCCGTATTTGTA (site GCCGCGCCTTA),0.00414
3,GCCACGCCATGGACCGGTTTTCCCGGTAATCCGTATTTGTA (site GCCTCGCCTTA),0.183
4,GCCACGCCATGGACCGGTTTTCCCGGTAATCCGTATTTGTA (site GCGACGCCTTA),0.00719
5,GCCACGCCATGGACCGGTTTTCCCGGTAATCCGTATTTGTA (site GCTACGCCTTA),0.0265
6,GCCACGCCATGGACCGGTTTTCCCGGTAATCCGTATTTGTA (site GGCACGCCTTA),0.204
7,GCCACGCCATGGACCGGTTTTCCCGGTAATCCGTATTTGTA (site GTCACGCCTTA),0.00531
8,GCCACGCCATGGACCGGTTTTCCCGGTAATCCGTATTTGTA (site TCCACGCCTTA),0.00575
9,GCCACTCCATGGACCGGTTTTCCCGGTAATCCGTATTTGGG (site GCCACTCCTCC),0.0141
10,GCCACTCCATGGACCGGTTTTCCCGGTAATCCGTATTTGTA (site GCCACACCTTA),0.0288
11,GCCACTCCATGGACCGGTTTTCCCGGTAATCCGTATTTGTA (site GCCACCCCTTA),0.0122
12,GCCACTCCATGGACCGGTTTTCCCGGTAATCCGTATTTGTA (site GCCACGCCTTA),0.00354
13,GCCACTCCATGGACCGGTTTTCCCGGTAATCCGTATTTGTA (site GCCACTCCTTA),1.35
14,GCCAGGCCATGGACCGGTTTTCCCGGTAATCCGTATTTGAA (site GCCAGGCCTTT),0.0165
15,GCCCAATCATGGACCGGTTTTCCCGGTAATCCGTATTTGGT (site GCCCAATCTAC),1.53
16,GCCCAGCCATGGACCGGTTTTCCCGGTAATCCGTATTTGGT (site GCCCAGCCTAC),0.0164
17,GCCCGCTCATGGACCGGTTTTCCCGGTAATCCGTATTTGCG (site GCCCGCTCTCG),2.44
18,GCCCGTACATGGACCGGTTTTCCCGGTAATCCGTATTTGCT (site GCCCGTACTAG),2.32
19,GCCCTTGCATGGACCGGTTTTCCCGGTAATCCGTATTTGAC (site GCCCTTGCTGT),1.06
20,GCCGATGCATGGACCGGTTTTCCCGGTAATCCGTATTTGGA (site GCCGATGCTTC),1.45
21,GCCGCGGCATGGACCGGTTTTCCCGGTAATCCGTATTTGGA (site GCCGCGGCTTC),0.468
22,GCCTACACATGGACCGGTTTTCCCGGTAATCCGTATTTGTC (site GCCTACACTGA),1.8
23,GCCTACCCATGGACCGGTTTTCCCGGTAATCCGTATTTGGC (site GCCTACCCTGC),0
24,GCCTATGCATGGACCGGTTTTCCCGGTAATCCGTATTTGTC (site GCCTATGCTGA),1.57
25,GCCTCGCCATGGACCGGTTTTCCCGGTAATCCGTATTTGCT (site GCCTCGCCTAG),0
